Test results published in ChEMBL document CHEMBL5120897, “Anti-HIV Tigliane-Type Diterpenoids from the Aerial Parts of Wikstroemia lichiangensis” (J Nat Prod, 2022).

What was measured:
[1] = system: Human immunodeficiency virus 1; experiment: Anti-HIV activity against HIV-1 NL4-3 Nanoluc-sec virus infected in human MT4 cells assessed as luciferase activity and measured 3 days post-infection by Nano-Glo luciferase assay; assay type: functional, organism-based; conditions: Human immunodeficiency virus 1, NL4-3, MT4, 72 h
MT4 = experiment: Cytotoxicity against human MT4 cells assessed as reduction in cell viability by CellTiter-Glo luminescent cell viability assay; assay type: functional

| Structure (SMILES) | IC50 [1] | CC50 (MT4) |
| --- | --- | --- |
| C=C(C)[C@]12C[C@@H](COC(=O)c3ccccc3)[C@@]34OC5(O[C@@H]1[C@@H]3[C@@H]1O[C@]1(CO)[C@@H](O)[C@@]1(O)[C@H]4[C@H]([C@H](C)[C@@H]1OC(=O)c1ccccc1)[C@H](C)CCCCCC[C@H]5O)O2 | 0.15 nM | > 7000 nM |
| CCCC/C=C/C=C/CC(=O)O[C@@]12[C@H](OC(=O)c3ccccc3)[C@@H](C)[C@@]3(O)[C@@H](C=C(CO)C[C@]4(O)C(=O)C(C)=C[C@@H]34)[C@@H]1C2(C)C | 3 nM | > 7000 nM |
| CCCCCC/C=C/CC(=O)O[C@@]12[C@H](OC(=O)c3ccccc3)[C@@H](C)[C@@]3(O)[C@@H](C=C(CO)C[C@]4(O)C(=O)C(C)=C[C@@H]34)[C@@H]1C2(C)C | 1.1 nM | > 7000 nM |
| CCCCCCCCCC(=O)O[C@@]12[C@H](OC(=O)c3ccccc3)[C@@H](C)[C@]3(O)[C@@H]4C=C(C)C(=O)[C@@]4(O)[C@H](O)C(CO)=C[C@H]3[C@@H]1C2(C)C | 1.5 nM | > 7000 nM |
| CCCC/C=C/C=C/CC(=O)O[C@@]12[C@H](OC(=O)c3ccccc3)[C@@H](C)[C@]3(O)[C@@H]4C=C(C)C(=O)[C@@]4(O)[C@H](O)C(CO)=C[C@H]3[C@@H]1C2(C)C | 65.4 nM | > 7000 nM |
| CCCCCC/C=C/CC(=O)O[C@@]12[C@H](OC(=O)c3ccccc3)[C@@H](C)[C@]3(O)[C@@H]4C=C(C)C(=O)[C@@]4(O)[C@H](O)C(CO)=C[C@H]3[C@@H]1C2(C)C | 1.5 nM | > 7000 nM |
